According to patent US9504676B2, “Molecules inhibiting a metabolic pathway involving the Syk protein tyrosine kinase and method for identifying said molecules” (CENTRE NATIONAL DE LA RECHERCHE SCIENTIFIQUE, priority 2008, dated 2016):

Tested on: BMMC cells
Experiment: C-13 toxicity test on BMMC cells (Annexin-V and Propidium Iodide)
Type: cell-based
Conditions: Staurosporine, 3 hours
Protocol: FIG. 10. Toxicity test of C-13 on BMMC cells. The BMMC cells were incubated at 37° C. in the presence of 2.5 μM or 5 μM of C-13, 0.25% DMF or Staurosporine. The percentages of live BMMC cells after 3 hours and after 5 days were detected by means of double Annexin-V and Propidium Iodide labelling. The viability of BMMC cells incubated in the presence of 2.5 μM or 5 μM of C-13 or 0.25% DMF was not affected to noteworthy degree after 3 hours (78%, 74% and 79% respectively) or five days (62, 56 and 57%, respectively). On the other hand, the viability of BMMC cells treated under the same conditions with Staurosporine was reduced to a level of 16% after only 3 hours.
• 1) Chemical products and antibodies. A chemical bank of 3000 molecules (a varied subset) was acquired from ChemBridge, Inc. (San Diego, Calif.). Stocks of solutions of small molecules were prepared at a rate of 10 mM in DMSO (dimethylsulphoxide), except for C-13 (methyl 2-{5-[(3-benzyl-4-oxo-2-thioxo-1,3-thiazolidin-5-ylidene)methyl]-2-furyl}benzoate, ChemBridge ID No. 6197026) prepared in DMF (dimethylformamide). Unless specified otherwise, all the reagents were supplied by Sigma. Dinitrophenyl (DNP) hapten was acquired from Calbiochem. Sepharose GammaBind G and all the secondary antibodies were supplied by GE Health Amersham Biosciences. The anti-Syk, anti-Lyn, anti-Btk, anti-PLC-γ1, anti-PLC-γ2, anti-LAT, anti-SLP-76, anti-p38, anti-JNK, anti-Vav, anti-Akt1 and 9E10 antibodies conjugated with HRP were acquired from Santa Cruz Biotechnology. The anti-phospho-p44/42 MAP Kinase, anti-p44/42 MAP Kinase, anti-phospho-p38, anti-phospho-JNK, anti-phospho-Akt1 antibodies were acquired from Cell Signaling. The anti-phospho-LAT and anti-phospho-PLC-γ1 antibodies were supplied by Biosource and the anti-phospho-SLP-76 antibodies by BD Pharmingen. The 4G10 anti-phosphotyrosine monoclonal antibody was acquired from Upstate Biotechnology. • 2) ADA method: ELISA type high-speed molecule screening test, based on antibody displacement (WO 2005106481). The recombinant fusion protein GST:Syk 6-242^8 comprising the residues 6 to 242 of murine Syk tyrosine kinase protein illustrated in FIG. 8B (SEQ ID No. 4) was immobilised on an ELISA plate at a final concentration of 10 μg ml^−1. For the screening of the chemical molecule bank, the small molecules, diluted in PBS at a final concentration of 10 μM were added to the wells for one hour at ambient temperature, before adding the fragment scFv G4G11 at a final concentration of 100 nM for an additional hour. The binding of G4G11 with Syk was assessed by adding the 9E10 monoclonal antibody conjugated with HRP detecting the amino acid sequence EQKLISEEDLN of human c-myc protein located at the C-terminal end of the scFv fragment. To generate Syk mutants, targeted mutagenesis was used on GST:Syk 6-242 protein and the binding of G4G11 with the mutants was assessed in the presence of 5 μM of C-13. • 3) Cells, culture conditions and functional tests. Anti-DNP 2682-I mouse monoclonal antibody was used as the culture supernatant of hybridomas containing 1 μg/ml of IgE. Femoral bone marrow cells were sampled and cultured in Opti-MEM medium (Gibco) supplemented with 10% foetal calf serum and 4% X63 transfectant supernatant secreting murine IL-3. RBL-2H3 (ATCC) leukaemic rat basophil cells were maintained in a single-layer culture in RPMI 1640 medium supplemented with 10% foetal calf serum (Gibco). […]

CN[C@@H]1C[C@H]2O[C@@](C)([C@@H]1OC)n1c3ccccc3c3c4c(c5c6ccccc6n2c5c31)C(=O)NC4 [Staurosporine, reference compound]
percentage of live BMMC cells: 16%
